Measurements reported in the supplement of paper PMC11208160.

assay: recombinant UMI read abundance after kanamycin selection (control-corrected) (log10(CPM+1)); higher = more efficient recombination; extreme values may be limits of the assay; sequences stand for … in AGTGCAGAGAAAATCGGCCAGTTTTCTCTGCCTGCAGTCCGCATGCCGTGGGACCCCTTGGGTTCTAACCTGTTGCCTAGATTTATGCAGCGGACTGCCTTTCTCCCAAAGTGATAAACCGG…AGGTTGGTTTCACT; site = the 11-nt donor
Description: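 Pooled E. coli donor-specificity screen for the IS621 bridge recombinase. Each library member carries a reprogrammed 11-nt donor and a full-length LE bridge RNA expressed in cis from the natural promoter, with a paired donor-binding loop (8-nt LDG + 4-nt RDG) and a target-binding loop fixed to T5. It is co-electroporated with a T5 target plasmid; recombinase is induced with 0.07 mM IPTG and recombinants are selected on kanamycin. UMIs are counted as CPM, averaged over two biological replicates and corrected by the unselected control. Molecule = full bridge RNA written as DNA, built from the T5 scaffold: LDG = donor specificity nt 1-8, RDG = reverse complement of nt 8-11.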
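Note: IS621 bridge recombinase in Escherichia coli cells against a fixed T5 target plasmid.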

| Sequence | recombinant UMI read abundance (log10) |
| --- | --- |
| AAGCAGGCATGGACCGGTTTTCCCGGTAATCCGTATTTGGG (site AAGCACGCTCC) | 0.0214 |
| AAGCAGGCATGGACCGGTTTTCCCGGTAATCCGTATTTGGG (site AAGCAGGCTCC) | 0.367 |
| AAGCAGGCATGGACCGGTTTTCCCGGTAATCCGTATTTGGG (site AAGCATGCTCC) | 0.00333 |
| AAGCCAGCATGGACCGGTTTTCCCGGTAATCCGTATTTGGG (site AAGCCAGCTCC) | 0.00996 |
| AAGCGGGCATGGACCGGTTTTCCCGGTAATCCGTATTTGAC (site AAGCGGGCTGT) | 1.62 |
| AAGCTGTCATGGACCGGTTTTCCCGGTAATCCGTATTTGAT (site AAGCTGTCTAT) | 0.353 |
| AAGGACACATGGACCGGTTTTCCCGGTAATCCGTATTTGAG (site AAGGACACTCT) | 2.09 |
| AAGGACGCATGGACCGGTTTTCCCGGTAATCCGTATTTGGG (site AAGAACGCTCC) | 0.307 |
| AAGGACGCATGGACCGGTTTTCCCGGTAATCCGTATTTGGG (site AAGCACGCTCC) | 0.0166 |
| AAGGACGCATGGACCGGTTTTCCCGGTAATCCGTATTTGGG (site AAGGACGCTCC) | 0.789 |
| AAGGACGCATGGACCGGTTTTCCCGGTAATCCGTATTTGGG (site AAGTACGCTCC) | 0.0226 |
| AAGGATCCATGGACCGGTTTTCCCGGTAATCCGTATTTGGT (site AAGGATCCTAC) | 0.373 |
| AAGGGTCCATGGACCGGTTTTCCCGGTAATCCGTATTTGAT (site AAGGGTCCTAT) | 0.0248 |
| AAGGTCACATGGACCGGTTTTCCCGGTAATCCGTATTTGAG (site AAGGTCACTCT) | 1.55 |
| AAGGTCACATGGACCGGTTTTCCCGGTAATCCGTATTTGGA (site AAGGTCACTTC) | 1.14 |
| AAGGTGTCATGGACCGGTTTTCCCGGTAATCCGTATTTGAC (site AAAGTGTCTGT) | 1.13 |
| AAGGTGTCATGGACCGGTTTTCCCGGTAATCCGTATTTGAC (site AACGTGTCTGT) | 0.678 |
| AAGGTGTCATGGACCGGTTTTCCCGGTAATCCGTATTTGAC (site AAGGTGTCTGT) | 3.31 |
| AAGGTGTCATGGACCGGTTTTCCCGGTAATCCGTATTTGAC (site AATGTGTCTGT) | 0 |
| AAGTAATCATGGACCGGTTTTCCCGGTAATCCGTATTTGAG (site AAGTAATCTCT) | 2.78 |
| AAGTAGGCATGGACCGGTTTTCCCGGTAATCCGTATTTGGC (site AAGTAGGCTGC) | 2.2 |
| AAGTAGGCATGGACCGGTTTTCCCGGTAATCCGTATTTGGC (site ACGTAGGCTGC) | 1.04 |
| AAGTAGGCATGGACCGGTTTTCCCGGTAATCCGTATTTGGC (site AGGTAGGCTGC) | 0.265 |
| AAGTAGGCATGGACCGGTTTTCCCGGTAATCCGTATTTGGC (site ATGTAGGCTGC) | 1.41 |

| Sequence | recombinant UMI read abundance (log10) |
| --- | --- |
| AAGTCGCCATGGACCGGTTTTCCCGGTAATCCGTATTTGAC (site AAGTCGCCTGT) | 0 |
| AAGTGCACATGGACCGGTTTTCCCGGTAATCCGTATTTGGT (site AAGTGCACTAC) | 0.762 |
| AAGTGTACATGGACCGGTTTTCCCGGTAATCCGTATTTGTG (site AAGTGTACTCA) | 0.962 |
| AATAAACCATGGACCGGTTTTCCCGGTAATCCGTATTTGCC (site AATAAACCTGG) | 0 |
| AATAAACCATGGACCGGTTTTCCCGGTAATCCGTATTTGTG (site AATAAACCTCA) | 0.00291 |
| AATAATTCATGGACCGGTTTTCCCGGTAATCCGTATTTGAT (site AATAATTCTAT) | 0.955 |
| AATAGCACATGGACCGGTTTTCCCGGTAATCCGTATTTGGC (site AATAGCACTGC) | 2.04 |
| AATATGTCATGGACCGGTTTTCCCGGTAATCCGTATTTGAC (site AATATGTCTGT) | 0.953 |
| AATATGTCATGGACCGGTTTTCCCGGTAATCCGTATTTGAC (site AATCTGTCTGT) | 0 |
| AATATGTCATGGACCGGTTTTCCCGGTAATCCGTATTTGAC (site AATGTGTCTGT) | 0 |
| AATATGTCATGGACCGGTTTTCCCGGTAATCCGTATTTGAC (site AATTTGTCTGT) | 0 |
| AATCCCACATGGACCGGTTTTCCCGGTAATCCGTATTTGCT (site AATCCCACTAG) | 1.77 |
| AATCCTCCATGGACCGGTTTTCCCGGTAATCCGTATTTGAT (site AATCCTCCTAT) | 0.344 |
| AATCGAGCATGGACCGGTTTTCCCGGTAATCCGTATTTGGA (site AATCGAGCTTC) | 0.474 |
| AATCTAACATGGACCGGTTTTCCCGGTAATCCGTATTTGCT (site AATATAACTAG) | 0 |
| AATCTAACATGGACCGGTTTTCCCGGTAATCCGTATTTGCT (site AATCTAACTAG) | 0 |
| AATCTAACATGGACCGGTTTTCCCGGTAATCCGTATTTGCT (site AATGTAACTAG) | 0.245 |
| AATCTAACATGGACCGGTTTTCCCGGTAATCCGTATTTGCT (site AATTTAACTAG) | 0 |
| AATCTGTCATGGACCGGTTTTCCCGGTAATCCGTATTTGAC (site AATATGTCTGT) | 0 |
| AATCTGTCATGGACCGGTTTTCCCGGTAATCCGTATTTGAC (site AATCTGTCTGT) | 0 |
| AATCTGTCATGGACCGGTTTTCCCGGTAATCCGTATTTGAC (site AATGTGTCTGT) | 0.00511 |
| AATCTGTCATGGACCGGTTTTCCCGGTAATCCGTATTTGAC (site AATTTGTCTGT) | 0 |
| AATGAAACATGGACCGGTTTTCCCGGTAATCCGTATTTGCT (site AATGAAACTAG) | 1.94 |
| AATGAAACATGGACCGGTTTTCCCGGTAATCCGTATTTGCT (site AATGCAACTAG) | 0.479 |

| Sequence | recombinant UMI read abundance (log10) |
| --- | --- |
| AATGAAACATGGACCGGTTTTCCCGGTAATCCGTATTTGCT (site AATGGAACTAG) | 0 |
| AATGAAACATGGACCGGTTTTCCCGGTAATCCGTATTTGCT (site AATGTAACTAG) | 1.65 |
| AATGAAGCATGGACCGGTTTTCCCGGTAATCCGTATTTGTC (site AATGAAGCTGA) | 2.09 |
| AATGGATCATGGACCGGTTTTCCCGGTAATCCGTATTTGAC (site AATGGATCTGT) | 2.04 |
| AATGTAACATGGACCGGTTTTCCCGGTAATCCGTATTTGCT (site AAAGTAACTAG) | 1.76 |
| AATGTAACATGGACCGGTTTTCCCGGTAATCCGTATTTGCT (site AACGTAACTAG) | 2.22 |
| AATGTAACATGGACCGGTTTTCCCGGTAATCCGTATTTGCT (site AAGGTAACTAG) | 1.84 |
| AATGTAACATGGACCGGTTTTCCCGGTAATCCGTATTTGCT (site AATATAACTAG) | 2.07 |
| AATGTAACATGGACCGGTTTTCCCGGTAATCCGTATTTGCT (site AATCTAACTAG) | 0.276 |
| AATGTAACATGGACCGGTTTTCCCGGTAATCCGTATTTGCT (site AATGAAACTAG) | 0.0158 |
| AATGTAACATGGACCGGTTTTCCCGGTAATCCGTATTTGCT (site AATGCAACTAG) | 0.239 |
| AATGTAACATGGACCGGTTTTCCCGGTAATCCGTATTTGCT (site AATGGAACTAG) | 0 |
| AATGTAACATGGACCGGTTTTCCCGGTAATCCGTATTTGCT (site AATGTAACTAA) | 0.0161 |
| AATGTAACATGGACCGGTTTTCCCGGTAATCCGTATTTGCT (site AATGTAACTAC) | 0.00758 |
| AATGTAACATGGACCGGTTTTCCCGGTAATCCGTATTTGCT (site AATGTAACTAG) | 2.26 |
| AATGTAACATGGACCGGTTTTCCCGGTAATCCGTATTTGCT (site AATGTAACTAT) | 0.0618 |
| AATGTAACATGGACCGGTTTTCCCGGTAATCCGTATTTGCT (site AATGTAACTCG) | 0.0789 |
| AATGTAACATGGACCGGTTTTCCCGGTAATCCGTATTTGCT (site AATGTAACTGG) | 1.14 |
| AATGTAACATGGACCGGTTTTCCCGGTAATCCGTATTTGCT (site AATGTAACTTG) | 0.00409 |
| AATGTAACATGGACCGGTTTTCCCGGTAATCCGTATTTGCT (site AATGTACCTAG) | 0 |
| AATGTAACATGGACCGGTTTTCCCGGTAATCCGTATTTGCT (site AATGTAGCTAG) | 0.332 |
| AATGTAACATGGACCGGTTTTCCCGGTAATCCGTATTTGCT (site AATGTATCTAG) | 1.67 |
| AATGTAACATGGACCGGTTTTCCCGGTAATCCGTATTTGCT (site AATGTCACTAG) | 0.198 |
| AATGTAACATGGACCGGTTTTCCCGGTAATCCGTATTTGCT (site AATGTGACTAG) | 0.422 |
